# Reference: patent publication US11072812B2, “Substrates for covalent tethering of proteins to functional groups or solid surfaces” (PROMEGA CORPORATION, priority 2013, dated 2021)
# Columns and labels:
# HaloTag® protein [1] = assay: Binding efficiency/kinetics to HaloTag protein in cell lysate (chase with fluorescent HaloTag ligand, SDS-PAGE); settings: SAHA-chloroalkane conjugates, 1 μM, 0-60 min; compared with PBI-5231 (O6)
# Method: (§1) a) Binding efficiency to HaloTag® protein in lysate was measured by adding the methotrexate-chloroalkane conjugates to lysate from cells expressing a HaloTag® protein to a final concentration of 1 μM. Following 0-60 mins of binding, the reactions were chased with 1 μM fluorescent HaloTag® ligand. Unbound HaloTag® protein was detected through binding to the fluorescent HaloTag® ligand followed by analysis on SDS-PAGE gel and detection on a fluorescent gel scanner.
# as §1, with “adding the dexamethasone-chloroalkane conjugates to” for “adding the methotrexate-chloroalkane conjugates to”, “the fluorescent HaloTag ligand followed” for “the fluorescent HaloTag® ligand followed”
# a) Binding kinetics to HaloTag® protein in cell lysate was measured by adding the modified BIRB796-chloroalkane conjugates to lysate from cells expressing a HaloTag® protein at a final concentration of 1 μM. After 0-60 min of binding, the reactions were chased with 1 μM fluorescent HaloTag® ligand (Promega Corporation). Unbound HaloTag® protein was detected through binding to the fluorescent HaloTag® ligand followed by analysis on SDS-PAGE and detection on a fluorescent gel scanner.
# Following 0-60 min of binding, the reactions were chased with 1 μM fluorescent HaloTag® ligand. Unbound HaloTag® protein was detected through binding to the fluorescent HaloTag® ligand followed by analysis on SDS-PAGE and detection on a fluorescent gel scanner.
# a) Binding kinetics to HaloTag® protein in cell lysate was measured by adding the dasatinib-chloroalkane conjugates to lysate (final concentration of 1 μM) from cells expressing a HaloTag® protein. Following 0-60 min of binding, the reactions were chased with 1 μM fluorescent HaloTag® ligand. Unbound HaloTag® protein was detected through binding to the fluorescent HaloTag® ligand followed by analysis on SDS-PAGE and detection on a fluorescent gel scanner.
# HaloTag® protein [2] = assay: Binding efficiency/kinetics to HaloTag protein in cells (cell permeability; chase with fluorescent HaloTag ligand, SDS-PAGE); assay type: cell-based; settings: SAHA-chloroalkane conjugates, 10 μM, 0-180 min; HaloTag localized to cytoplasm or nucleus; compared with PBI-5231 (O6)
# Method: b) Binding efficiency to HaloTag® protein in cells was measured by adding the methotrexate-chloroalkane conjugates to cells expressing a HaloTag® protein to a final concentration of 10 μM. Following 0-120 mins of binding, the reactions were chased with 5 μM fluorescent HaloTag® ligand. Unbound HaloTag® protein was detected through binding to the fluorescent HaloTag® ligand followed by cell lysis, analysis on a SDS-PAGE gel and detection on a fluorescent gel scanner.
# b) Binding efficiency to HaloTag® protein in cells was measured by adding the dexamethasone-chloroalkane conjugates to cells expressing a HaloTag® protein to a final concentration of 10 μM. Following 0-60 mins of binding, the reaction was chased with 5 μM fluorescent HaloTag ligand. Unbound HaloTag® protein was detected through binding to the fluorescent HaloTag® ligand followed by cell lysis, analysis on SDS-PAGE gel and detection on a fluorescent gel scanner.
# b) Binding kinetics to HaloTag® protein in cells was measured by adding the modified BIRB796-chloroalkane conjugates to cells expressing a HaloTag® protein at a final concentration of 10 μM. Following 0-60 min of binding, the reactions were chased with 5 μM fluorescent HaloTag® ligand. Unbound HaloTag® protein was detected through binding to the fluorescent HaloTag® ligand followed by cell lysis, analysis on SDS-PAGE and detection on a fluorescent gel scanner.
# Following 0-180 min of binding, the reactions were chased with 5 μM fluorescent HaloTag® ligand. Unbound HaloTag® protein was detected through binding to the fluorescent HaloTag® ligand followed by cell lysis, analysis on SDS-PAGE and detection on a fluorescent gel scanner.
# b) Binding kinetics to HaloTag® protein in cells was measured by adding the dasatinib-chloroalkane conjugates (final concentration of 10 μM) to cells expressing a HaloTag protein which localized to the cytoplasm or the nucleus. Following 0-90 min of binding, the reactions were chased with 5 μM fluorescent HaloTag® ligand. Unbound HaloTag® protein was detected through binding to the fluorescent HaloTag® ligand followed by cell lysis, analysis on SDS-PAGE and detection on a fluorescent gel scanner.
# [3] = system: intracellular HDAC activity; assay: Intracellular HDAC activity, non-lytic HDAC-Glo I/II assay in HEK293 and K562 cells; assay type: cell-based; settings: PBI-5040 relative to SAHA, 2 h
# Method: HEK293 cells were plated into a 96-well plate at 1×10^5 cell/ml, and 24 h later, the media was replaced with serum free media. K562 cells were plated in serum free media (96-well plate) at 2×10^5 cells/ml.
# [4] = system: all known target of SAHA (HDAC1, HDAC2, HDAC3, HDAC6, HDAC8, HDAC10); assay: Pull-down of endogenous targets from K562 cells onto HaloTag protein beads, Western blot and mass spec analysis; assay type: cell-based
# Method: K562 cells were plated into 150 mm dishes at 1.66×10^6 cell/ml (total of 5×10^7 cells per dish). […] Following equilibrium binding of 2 h, the media was removed; cells were quickly washed with PBS; cells lysed in a detergent-based lysis buffer for 10 min and centrifuged at 3000×g for 1 min. Clear lysates were then added to 75 ul of settled paramagnetic HaloTag® protein beads and incubated with shaking for 15 min. […] The released targets were subjected to mass spec analysis (FIG. 14B) as well as western blot analysis (FIG. 14A) with anti-HDAC1 antibody (ABCAM), anti-HDAC2 antibody (ABCAM), anti-HDAC6 antibody (Millipore), anti-HDAC3 antibody (Thermo Fisher), anti-HDAC10 (ABCAM) and anti-HDAC8 antibody (Rockland).
compound,measurement,setting,value
"O=C(CCCCCCC(=O)Nc1ccc(CNC(=O)OCCOCCOCCOC(=O)NCCOCCOCCCCCCCl)cc1)NO [PBI-5040, SAHA-Carbamate]",binding kinetics to HaloTag protein in cell lysate,HaloTag® protein [1],significantly faster binding kinetics
same,permeability/binding kinetics to HaloTag protein in cells,HaloTag® protein [2],significantly faster permeability/binding kinetics
same,reduction in SAHA potency due to the chloroalkane modification,[3],~2 fold
same,pull-down of endogenous SAHA targets incl. low affinity (HDAC8) and low abundance (HDAC3) target,"[4]; 20 uM, 2 h, beads 15 min, release with 400 μM SAHA",specifically pulled down
same,cellular permeability,[4]; inferred from pull down of nuclear (HDAC1) and cytoplasmic (HDAC 6) proteins,high
